Drawing on patent US11524966B1 (Valo Early Discovery, Inc., priority 2017, dated 2022), this text covers IC50 for 17 compounds.

The term IC50 denotes the concentration needed to halve the response being measured.

Bounds are passed on as bounds.

The experiment deals with T1, USP28 (His-tagged USP28-FL-mammalian) (Homo sapiens, UniProt Q96RU2).
T1 construct: Expression of USP28 (1-1077)-TEV-6*His (pTT5 vector); made in house; host or cells: Expi293f cells (pTT5 vector)
T1 sequence (Q96RU2 1-1077): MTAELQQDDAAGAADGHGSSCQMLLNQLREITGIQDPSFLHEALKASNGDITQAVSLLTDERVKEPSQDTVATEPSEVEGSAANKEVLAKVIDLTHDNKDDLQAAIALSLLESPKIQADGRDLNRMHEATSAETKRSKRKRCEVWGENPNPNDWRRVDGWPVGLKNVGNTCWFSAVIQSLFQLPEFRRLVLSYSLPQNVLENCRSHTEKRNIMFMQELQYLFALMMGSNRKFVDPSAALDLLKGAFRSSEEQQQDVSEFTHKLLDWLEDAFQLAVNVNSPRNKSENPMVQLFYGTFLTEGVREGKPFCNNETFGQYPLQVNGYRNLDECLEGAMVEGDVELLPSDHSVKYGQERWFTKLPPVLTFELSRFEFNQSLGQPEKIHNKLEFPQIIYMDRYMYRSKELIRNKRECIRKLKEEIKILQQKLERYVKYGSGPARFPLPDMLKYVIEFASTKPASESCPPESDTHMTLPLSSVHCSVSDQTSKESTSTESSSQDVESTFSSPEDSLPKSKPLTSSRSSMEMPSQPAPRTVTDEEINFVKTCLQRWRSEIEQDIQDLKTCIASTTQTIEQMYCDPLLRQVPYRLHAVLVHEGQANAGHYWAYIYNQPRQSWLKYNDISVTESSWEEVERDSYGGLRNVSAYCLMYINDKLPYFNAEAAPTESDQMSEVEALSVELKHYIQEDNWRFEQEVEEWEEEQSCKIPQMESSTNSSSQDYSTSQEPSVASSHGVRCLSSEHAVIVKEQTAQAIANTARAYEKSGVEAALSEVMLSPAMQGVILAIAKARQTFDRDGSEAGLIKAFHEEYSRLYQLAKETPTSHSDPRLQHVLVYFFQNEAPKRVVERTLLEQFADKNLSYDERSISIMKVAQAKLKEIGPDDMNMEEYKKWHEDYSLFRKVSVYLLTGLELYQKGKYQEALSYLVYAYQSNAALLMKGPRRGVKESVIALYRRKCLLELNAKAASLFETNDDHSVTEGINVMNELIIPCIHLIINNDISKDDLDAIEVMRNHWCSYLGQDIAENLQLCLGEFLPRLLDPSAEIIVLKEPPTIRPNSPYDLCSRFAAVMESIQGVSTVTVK
Briefly: Ubiquitin-Rhodamine 110 Assay for USP28 Activity, Example A-1(a). In kind it is biochemical. The settings on record: Ubiquitin-Rhodamine 110 assay, Example A-1(a); read-out: USP28 A-1(a) IC50 range. How it is done: Example A-1(a): Biochemical Assay: Ubiquitin-Rhodamine 110 Assay for USP28 Activity
The assay was performed in a final volume of 9 μL in assay buffer containing 20 mM Tris-HCl (pH 8.0, (1M Tris-HCl, pH 8.0 solution; Corning 46-031-CM)), 3 mM BME (2-Mercaptoethanol; Sigma 63689-25ML-F), 0.03% BGG (0.22 μM filtered, Sigma, G7516-25G), and 0.01% Triton X-100 (Sigma, T9284-10L). Nanoliter quantities of 10-point, 3-fold serial dilution in DMSO was pre-dispensed into 1536 assay plates (Corning, #3724BC) for a final test concentration of 25 μM to 1.3 nM, top to lowest dose, respectively. Enzyme USP28, construct His-tagged USP28-FL-mammalian, (protein expression and purification procedure described below). Concentration and incubation times were optimized for the maximal signal-to-background while maintaining initial velocity conditions at a fixed substrate concentration. The final concentration of the enzyme in the assay was 75 μM. Final substrate (Ub-Rh110; Ubiquitin-Rhodamine 110, UbiQ-126) concentration was 25 nM with [Ub-Rh110]<<Km. 3 μL of 2× enzyme was added to assay plates (pre-stamped with compound) preincubated with […] for 30 minutes and then 3 μL of 2×Ub-Rh110 was added to assay plates. Plates were incubated for 45 minutes at room temperature before addition of 3 μL of stop solution (final concentration of 10 mM citric acid (Sigma, 251275-500G)). Fluorescence was read on the Envision (Excitation at 485 nm and Emission at 535 nm; Perkin Elmer) or on the PheraSTAR (Excitation at 485 nm and Emission at 535 nm; BMG Labtech).
Procedure for the Protein Expression and Purification for Construct His-Tagged USP28-FL-Mammalian
Expression of USP28 (1-1077)-TEV-6*His (pTT5 vector) was carried out in Expi293f cells (sequence derived from uniprot ID: Q96RU2-1). Cells were re-suspended in lysis buffer B 50 mM Bicine, pH 8.0, 20 mM NaCl, 5% glycerol, 0.1% CHAPS, 5 mM β-ME, 1 mM PMSF, 1 ug/ml Leupeptin, 1 ug/ml Pepstatin) and lysed by sonication. Insoluble material was removed by centrifugation and the supernatant was loaded onto a Ni-NTA column (GE Healthcare) equilibrated with Ni Buffer A (50 mM Bicine, pH 8.0, 20 mM NaCl, 5% glycerol, 0.1% CHAPS, 5 mM β-ME.) and washed with Ni Buffer A+20 mM imidazole until A280 reached baseline. The protein was eluted with Ni Buffer B (50 mM Bicine, pH 8.0, 20 mM NaCl, 5% glycerol, 0.1% CHAPS, 5 mM β-ME, 300 mM imidazole.). The protein was further purified using a Superdex™ 200 10/300 GL column (GE Healthcare) equilibrated with 50 mM Bicine, pH 8.0, 20 mM NaCl, 5% glycerol, 0.1% CHAPS, 5 mM β-ME. The protein was concentrated to 2.5 mg ml^−1, flash-frozen in liquid N2 and stored at −80° C.
For assay formats Example A-1(a), A-1(b), and A-2, data were reported as percent inhibition compared with control wells based on the following equation: % inh=1−((FLU−AveLow)/(AveHigh−AveLow)) where FLU=measured Fluorescence, AveLow=average Fluorescence of no enzyme control (n=16), and AveHigh=average Fluorescence of DMSO control (n=16). IC50 values were determined by curve fitting of the standard 4 parameter logistic fitting algorithm included in the Activity Base software package: IDBS XE Designer Model 205. Data is fitted using the Levenburg Marquardt algorithm.
`CO[C@]12CCN[C@@H]1CN(c1ccc3c(n1)CC[C@H](NC(=O)c1sc4nc(C)ccc4c1N)C3)C2` [Example 435, N-[(6S)-2-[(3aS,6aR)-3a-methoxy-octahydropyrrolo[2,3-c]pyrrol-5-yl]-5,6,7,8-tetrahydroquinolin-6-yl]-3-amino-6-methylthieno[2,3-b]pyridine-2-carboxamide]: the 50% inhibitory concentration (IC50) is 50 to 200 nM.

Take `COCCO[C@H]1CN(c2ccc3c(n2)CC[C@H](NC(=O)c2sc4nc(C)ccc4c2N)C3)C[C@@H]1N` (single isomer, unassigned) [Example 28-1]: the IC50 lay in the range of 200 to 2000 nM.

For the compound `Cc1ccc2c(N)c(C(=O)N[C@@H]3CCc4nc(N5C[C@@H](N)[C@H](C(F)F)C5)ncc4C3)sc2n1` [Example 382, 3-amino-N-[(6R)-2-[(3S,4R)-3-amino-4-(difluoromethyl)pyrrolidin-1-yl]-5,6,7,8-tetrahydroquinazolin-6-yl]-6-methylthieno[2,3-b]pyridine-2-carboxamide], the half-inhibitory concentration (IC50) was 200 to 2000 nM.

As for `Cc1ccc2c(N)c(C(=O)N[C@H]3COc4cc(N5CC6CNCC(C5)C6(F)F)ncc4C3)sc2n1` [Example 114, 3-amino-N-[(3R)-7-{9,9-difluoro-3,7-diazabicyclo[3.3.1]nonan-3-yl}-2H,3H,4H-pyrano[3,2-c]pyridin-3-yl]-6-methylthieno[2,3-b]pyridine-2-carboxamide], the IC50 fell in the range of 1 to 50 nM.

In the case of `Cc1ccc2c(N)c(C(=O)N[C@H]3CCc4nc(N5CC[C@]6(C5)OCC[C@@H]6N)ccc4C3)sc2n1` [Example 406, 3-amino-N-[(6S)-2-[(4S,5R)-4-amino-1-oxa-7-azaspiro[4.4]nonan-7-yl]-5,6,7,8-tetrahydroquinolin-6-yl]-6-methylthieno[2,3-b]pyridine-2-carboxamide], the IC50 was in the range of 200 to 2000 nM.

For `CO[C@H]1CN(c2cc3c(cn2)C[C@@H](NC(=O)c2sc4nc(C)ccc4c2N)CO3)C[C@@H]1N` [Example 179, 3-amino-N-[(3R)-7-[(3S,4S)-3-amino-4-methoxypyrrolidin-1-yl]-2H,3H,4H-pyrano[3,2-c]pyridin-3-yl]-6-methylthieno[2,3-b]pyridine-2-carboxamide], the half-maximal inhibitory concentration (IC50) lay in the range of 1 to 50 nM.

Turning to `Cc1ccc2c(N)c(C(=O)N[C@H]3CCc4nc(N5CCN[C@@H](C(F)F)C5)ccc4C3)sc2n1` [Example 375, 3-amino-N-[(6S)-2-[(3R)-3-(difluoromethyl)piperazin-1-yl]-5,6,7,8-tetrahydroquinolin-6-yl]-6-methylthieno[2,3-b]pyridine-2-carboxamide], the concentration for half-maximal inhibition (IC50) lay in the range of 50 to 200 nM.

For the compound `Cc1ccc2c(N)c(C(=O)N[C@H]3COc4cc(N5CC[C@@]6(C5)OCC[C@@H]6N)ccc4C3)sc2n1` [Example 411, 3-amino-N-[(3R)-7-[(4S,5S)-4-amino-1-oxa-7-azaspiro[4.4]nonan-7-yl]-3,4-dihydro-2H-1-benzopyran-3-yl]-6-methylthieno[2,3-b]pyridine-2-carboxamide], the IC50 lay in the range of 1 to 50 nM.

For the compound `Cc1ccc2c(N)c(C(=O)N[C@H]3CCc4nc(N5C[C@H]6CCN[C@@H](C5)C6(F)F)ccc4C3)sc2n1` [Example 368, 3-amino-N-[(6S)-2-[(1S,5R)-9,9-difluoro-2,7-diazabicyclo[3.3.1]nonan-7-yl]-5,6,7,8-tetrahydroquinolin-6-yl]-6-methylthieno[2,3-b]pyridine-2-carboxamide], the half-maximal inhibitory concentration (IC50) lay in the range of 1 to 50 nM.

For the compound `CO[C@H]1CN(c2ncc3c(n2)CC[C@H](NC(=O)c2sc4nc(C)cc(C)c4c2N)C3)C[C@@H]1N` [Example 273, 3-amino-N-[(6S)-2-[(3S,4S)-3-amino-4-methoxypyrrolidin-1-yl]-5,6,7,8-tetrahydroquinazolin-6-yl]-4,6-dimethylthieno[2,3-b]pyridine-2-carboxamide], the IC50 was over 2000 nM.

For the compound `COC[C@H]1[C@H](N)CCN1c1ccc2c(n1)CC[C@H](NC(=O)c1sc3nc(C)ccc3c1N)C2` [Example 419, 3-amino-N-[(6S)-2-[(2R,3R)-3-amino-2-(methoxymethyl)pyrrolidin-1-yl]-5,6,7,8-tetrahydroquinolin-6-yl]-6-methylthieno[2,3-b]pyridine-2-carboxamide], the half-inhibitory concentration (IC50) was 50 to 200 nM.

Turning to `CCO[C@H]1CN(c2cc3c(cn2)C[C@@H](NC(=O)c2sc4nc(C)ccc4c2N)CO3)C[C@@H]1N` [Example 180, 3-amino-N-[(3R)-7-[(3S,4S)-3-amino-4-ethoxypyrrolidin-1-yl]-2H,3H,4H-pyrano[3,2-c]pyridin-3-yl]-6-methylthieno[2,3-b]pyridine-2-carboxamide], the IC50 was 1 to 50 nM.

Regarding `Cc1ccc2c(N)c(C(=O)N[C@H]3CCc4nc(N5CC[C@@](N)(CO)C5)ccc4C3)sc2n1` [Example 387, 3-amino-N-[(6S)-2-[(3S)-3-amino-3-(hydroxymethyl)pyrrolidin-1-yl]-5,6,7,8-tetrahydroquinolin-6-yl]-6-methylthieno[2,3-b]pyridine-2-carboxamide], the IC50 lay in the range of 50 to 200 nM.

For `CO[C@@]1(C)CN(c2ccc3c(n2)CC[C@H](NC(=O)c2sc4nc(C)ccc4c2N)C3)C[C@H]1N` [Example 428, 3-amino-N-[(6S)-2-[(3S,4R)-4-amino-3-methoxy-3-methylpyrrolidin-1-yl]-5,6,7,8-tetrahydroquinolin-6-yl]-6-methylthieno[2,3-b]pyridine-2-carboxamide], the IC50 was 50 to 200 nM.

Take `CN[C@@H]1CN(c2ccc3c(n2)CC[C@H](NC(=O)c2sc4nc(C)ccc4c2N)C3)C[C@H]1COC` (single isomer, unassigned) [Example 26-2]: the IC50 is 50 to 200 nM.

With `Cc1ccc2c(N)c(C(=O)N[C@H]3CCc4nc(N5C[C@@H](CF)[C@@H](N)C5)ccc4C3)sc2n1` (single isomer, unassigned) [Example 27-1], the IC50 was 50 to 200 nM.

As for `CCn1ccc2cc(C(=O)N[C@H]3CCc4nc(N5C[C@@H](N)[C@H](C(F)F)C5)ccc4C3)cnc21` [Example 371, N-[(6S)-2-[(3S,4R)-3-amino-4-(difluoromethyl)pyrrolidin-1-yl]-5,6,7,8-tetrahydroquinolin-6-yl]-1-ethyl-1H-pyrrolo[2,3-b]pyridine-5-carboxamide], the half-inhibitory concentration (IC50) lay within 200 to 2000 nM.
